Measured values as given in patent publication US20140213446A1, “HERBICIDAL COMPOSITIONS AND METHODS USING COMBINATIONS OF 4-AMINO-3-CHLORO-6-(4-CHLORO-2-FLUORO-3-METHOXYPHENYL)PYRIDINE-2-CARBOXYLIC ACID OR A DERIVATIVE THEREOF AND AN ARYLOXYPHENOXY PROPIONATE ACCASE INHIBITOR HERBICIDE” (DOW AGROSCIENCES LLC, priority 2013, published 2014).

Columns and labels:
Assay in all cases: Postemergent herbicidal activity, greenhouse
Assay type in all cases: in vivo
[1] = system: ABUTH Abutilon theophrasti Medik. (velvetleaf)
Description: (§1) Evaluation of Postemergent Herbicidal Activity. Seeds or nutlets of the desired test plant species were planted in Sun Gro Metro-Mix® 360 planting mixture, which typically has a pH of 6.0 to 6.8 and an organic matter content of about 30 percent, in plastic pots with a surface area of 64 square centimeters (cm^2). When required to ensure good germination and healthy plants, a fungicide treatment and/or other chemical or physical treatment was applied. The plants were grown for 7-21 days (d) in a greenhouse with an approximate 15 hour (h) photoperiod which was maintained at about 23-29° C. during the day and 22-28° C. during the night. Nutrients and water were added on a regular basis and supplemental lighting was provided with overhead metal halide 1000-Watt lamps as necessary. The plants were employed for testing when they reached the first or second true leaf stage.
(§2) A weighed amount, determined by the highest rate to be tested, of each test compound was placed in a 25 milliliter (mL) glass vial and was dissolved in 4 mL of a 97:3 volume per volume (v/v) mixture of acetone and dimethyl sulfoxide (DMSO) to obtain concentrated stock solutions. […] The concentrated stock solutions obtained were diluted with 20 mL of an aqueous mixture containing acetone, water, isopropyl alcohol, DMSO, Atplus 411F crop oil concentrate, and Triton® X-155 surfactant in a 48.5:39:10:1.5:1.0:0.02 v/v ratio to obtain spray solutions containing the highest application rates. Additional application rates were obtained by serial dilution of 12 mL of the high rate solution into a solution containing 2 mL of a 97:3 v/v mixture of acetone and DMSO and 10 mL of an aqueous mixture containing acetone, water, isopropyl alcohol, DMSO, Atplus 411F crop oil concentrate, and Triton X-155 surfactant in a 48.5:39:10:1.5:1.0:0.02 v/v ratio to obtain ½X, ¼X, ⅛X and 1/16X rates of the high rate. Compound requirements are based upon a 12 mL application volume at a rate of 187 liters per hectare (L/ha). Formulated compounds were applied to the plant material with an overhead Mandel track sprayer equipped with 8002E nozzles calibrated to deliver 187 L/ha over an application area of 0.503 square meters (m^2) at a spray height of 18 inches ([…]) above the average plant canopy height. Control plants were sprayed in the same manner with the solvent blank.
(§3) Treatments consisted of the methyl ester of 4-amino-3-chloro-6-(4-chloro-2-fluoro-3-methoxyphenyl)pyridine-2-carboxylic acid (Cmpd 1) as technical grade material and fluazifop-P-butyl (Fusilade® DX), haloxyfop-P-methyl (GALLANT® super), and quizalofop-P-ethyl (Assure® II) alone and in combination. The form of compound of formula (I) and fluazifop-P-butyl, haloxyfop-P-methyl, and quizalofop-P-ethyl were applied on an acid equivalent basis.
(§4) The treated plants and control plants were placed in a greenhouse as described above and watered by subirrigation to prevent wash-off of the test compounds. After 14 d, the condition of the test plants as compared with that of the untreated plants was determined visually and scored on a scale of 0 to 100 percent where 0 corresponds to no injury and 100 corresponds to complete kill.
(§5) Results of testing mixtures in accordance with this disclosure and of the components of the mixtures separately against various common weeds in greenhouse trials are reported in the following tables. The reported values are of percent (%) control or percent (%) injury, visually rated. Colby's equation was used to determine the herbicidal effects expected from the mixtures (Colby, S. R. Calculation of the synergistic and antagonistic response of herbicide combinations. Weeds 1967, 15, 20-22.).
(§6) More specifically, the following equation was used to calculate the expected activity of mixtures containing two active ingredients, A and B:
(§7) A=observed efficacy of active ingredient A at the same concentration as used in the mixture; B=observed efficacy of active ingredient B at the same concentration as used in the mixture. […]

[2] = system: AMARE Amaranthus retroflexus L. (redroot pigweed)
Description: as §1, §2, §3, §4, §5, §6, §7

[3] = system: AVEFA Avena fatua L. (wild oat)
Description: as §1, §2, §3, §4, §5, §6, §7

[4] = system: BRSNW Brassica napus (winter oilseed rape)
Description: as §1, §2, §3, §4, §5, §6, §7

[5] = system: CHEAL Chenopodium album L. (common lambsquarters)
Description: as §1, §2, §3, §4, §5, §6, §7

[6] = system: CIRAR Cirsium arvense (L.) Scop. (Canada thistle)
Description: as §1, §2, §3, §4, §5, §6, §7

[7] = system: CYPES Cyperus esculentus L. (yellow nutsedge)
Description: as §1, §2, §3, §4, §5, §6, §7

[8] = system: DIGSA Digitaria sanguinalis (L.) Scop. (large crabgrass)
Description: as §1, §2, §3, §4, §5, §6, §7

[9] = system: EPHHL Euphorbia heterophylla L. (wild poinsettia)
Description: as §1, §2, §3, §4, §5, §6, §7

[10] = system: GLXMA Glycine max (soybean)
Description: as §1, §2, §3, §4, §5, §6, §7

[11] = system: HELAN Helianthus annuus L. (common sunflower)
Description: as §1, §2, §3, §4, §5, §6, §7

[12] = system: IPOHE Ipomoea hederacea (L.) Jacq. (ivyleaf momingglory)
Description: as §1, §2, §3, §4, §5, §6, §7

[13] = system: SETFA Setaria faberi Herrm. (giant foxtail)
Description: as §1, §2, §3, §4, §5, §6, §7

[14] = system: SORVU Sorghum vulgare (common sorghum)
Description: as §1, §2, §3, §4, §5, §6, §7

[15] = system: STEME Stellaria media (L.) Vill. (common chickweed)
Description: as §1, §2, §3, §4, §5, §6, §7

[16] = system: VIOTR Viola tricolor L. (wild violet)
Description: as §1, §2, §3, §4, §5, §6, §7

CCCCOC(=O)[C@@H](C)Oc1ccc(Oc2ccc(C(F)(F)F)cn2)cc1 [Fluazifop-P, fluazifop-P-butyl]
Visual Growth Reduction (%) 14 DAA Obs ([1]; Fluazifop-P 52.5 g ae/ha): 0% | Visual Growth Reduction (%) 14 DAA Obs ([1]; Fluazifop-P 105 g ae/ha): 0% | Visual Growth Reduction (%) 14 DAA Obs ([1]; Fluazifop-P 210 g ae/ha): 0% | Visual Growth Reduction (%) 14 DAA Obs ([2]; Fluazifop-P 52.5 g ae/ha): 0% | Visual Growth Reduction (%) 14 DAA Obs ([2]; Fluazifop-P 105 g ae/ha): 0% | Visual Growth Reduction (%) 14 DAA Obs ([2]; Fluazifop-P 210 g ae/ha): 0% | Visual Growth Reduction (%) 14 DAA Obs ([3]; Fluazifop-P 52.5 g ae/ha): 0% | Visual Growth Reduction (%) 14 DAA Obs ([3]; Fluazifop-P 105 g ae/ha): 0% | Visual Growth Reduction (%) 14 DAA Obs ([3]; Fluazifop-P 210 g ae/ha): 70% | Visual Growth Reduction (%) 14 DAA Obs ([4]; Fluazifop-P 52.5 g ae/ha): 0% | Visual Growth Reduction (%) 14 DAA Obs ([4]; Fluazifop-P 105 g ae/ha): 0% | Visual Growth Reduction (%) 14 DAA Obs ([4]; Fluazifop-P 210 g ae/ha): 0% | Visual Growth Reduction (%) 14 DAA Obs ([5]; Fluazifop-P 52.5 g ae/ha): 0% | Visual Growth Reduction (%) 14 DAA Obs ([5]; Fluazifop-P 105 g ae/ha): 0% | Visual Growth Reduction (%) 14 DAA Obs ([5]; Fluazifop-P 210 g ae/ha): 0% | Visual Growth Reduction (%) 14 DAA Obs ([6]; Fluazifop-P 52.5 g ae/ha): 0% | Visual Growth Reduction (%) 14 DAA Obs ([6]; Fluazifop-P 105 g ae/ha): 0% | Visual Growth Reduction (%) 14 DAA Obs ([6]; Fluazifop-P 210 g ae/ha): 0% | Visual Growth Reduction (%) 14 DAA Obs ([7]; Fluazifop-P 52.5 g ae/ha): 0% | Visual Growth Reduction (%) 14 DAA Obs ([7]; Fluazifop-P 105 g ae/ha): 0% | Visual Growth Reduction (%) 14 DAA Obs ([7]; Fluazifop-P 210 g ae/ha): 0% | Visual Growth Reduction (%) 14 DAA Obs ([8]; Fluazifop-P 52.5 g ae/ha): 70% | Visual Growth Reduction (%) 14 DAA Obs ([8]; Fluazifop-P 105 g ae/ha): 80% | Visual Growth Reduction (%) 14 DAA Obs ([8]; Fluazifop-P 210 g ae/ha): 85% | Visual Growth Reduction (%) 14 DAA Obs ([9]; Fluazifop-P 52.5 g ae/ha): 0% | Visual Growth Reduction (%) 14 DAA Obs ([9]; Fluazifop-P 105 g ae/ha): 0% | Visual Growth Reduction (%) 14 DAA Obs ([9]; Fluazifop-P 210 g ae/ha): 0% | Visual Growth Reduction (%) 14 DAA Obs ([10]; Fluazifop-P 52.5 g ae/ha): 0% | Visual Growth Reduction (%) 14 DAA Obs ([10]; Fluazifop-P 105 g ae/ha): 0% | Visual Growth Reduction (%) 14 DAA Obs ([10]; Fluazifop-P 210 g ae/ha): 0% | Visual Growth Reduction (%) 14 DAA Obs ([11]; Fluazifop-P 52.5 g ae/ha): 0% | Visual Growth Reduction (%) 14 DAA Obs ([11]; Fluazifop-P 105 g ae/ha): 0% | Visual Growth Reduction (%) 14 DAA Obs ([11]; Fluazifop-P 210 g ae/ha): 0% | Visual Growth Reduction (%) 14 DAA Obs ([12]; Fluazifop-P 52.5 g ae/ha): 0% | Visual Growth Reduction (%) 14 DAA Obs ([12]; Fluazifop-P 105 g ae/ha): 0% | Visual Growth Reduction (%) 14 DAA Obs ([12]; Fluazifop-P 210 g ae/ha): 0% | Visual Growth Reduction (%) 14 DAA Obs ([13]; Fluazifop-P 52.5 g ae/ha): 80% | Visual Growth Reduction (%) 14 DAA Obs ([13]; Fluazifop-P 105 g ae/ha): 80% | Visual Growth Reduction (%) 14 DAA Obs ([13]; Fluazifop-P 210 g ae/ha): 90% | Visual Growth Reduction (%) 14 DAA Obs ([14]; Fluazifop-P 52.5 g ae/ha): 70% | Visual Growth Reduction (%) 14 DAA Obs ([14]; Fluazifop-P 105 g ae/ha): 90% | Visual Growth Reduction (%) 14 DAA Obs ([14]; Fluazifop-P 210 g ae/ha): 100% | Visual Growth Reduction (%) 14 DAA Obs ([15]; Fluazifop-P 52.5 g ae/ha): 0% | Visual Growth Reduction (%) 14 DAA Obs ([15]; Fluazifop-P 105 g ae/ha): 0% | Visual Growth Reduction (%) 14 DAA Obs ([15]; Fluazifop-P 210 g ae/ha): 0% | Visual Growth Reduction (%) 14 DAA Obs ([16]; Fluazifop-P 52.5 g ae/ha): 0% | Visual Growth Reduction (%) 14 DAA Obs ([16]; Fluazifop-P 105 g ae/ha): 0% | Visual Growth Reduction (%) 14 DAA Obs ([16]; Fluazifop-P 210 g ae/ha): 0%
